Data taken from patent US11858958B2, “Blank liposome with ginsenoside Rg3 or its analog as membrane materials and preparations and uses thereof” (Shanghai Ginsome Pharmatech Co., Ltd., priority 2018, dated 2024).
Where “and” joins values, the source holds several entries; their conditions need not be identical. Identical values can stand only once.

Assays:
[1] = system: human gastric cancer cell (BGC-823); experiment: In vivo pharmacological efficacy assay, relative tumor volume; parameters: species or system nude mice
Experimental: 2. In vivo pharmacological efficacy assay: A total of 72 subcutaneous tumor-bearing nude mice were randomerized into 8 groups (9 in each group), and intravenously injected with PBS solution (Control group,), Rg3, Rg3-blank, PTX-Cho-Lipo, Abraxane, PTX-Rg5-Gipo, PTX-Rg3-Gipo and PTX-Rh2-Gipo, via tail vein at a dose of 10 mg·kg^1. The changes of mice body weights in each group were recorded every 2 days, and the longest diameter and the shortest diameter of tumors were measured with vernier calipers. The tumor volume is calculated by the following formula: V=(dmax×dmin^2)/2, wherein dmin and dmax are respectively the shortest diameter and the longest diameter (mm) of the tumor; a relative tumor volume (RTV) is calculated according to the measurement results by the formula: RTV=TVn/TV0,
wherein TVn is the volume of the tumor measured every 2 days, TV0 is the volume of the tumor measured at day zero (the administration day).

rat C6 glioma cells = experiment: In vitro drug efficiency assay, survival rate of glioma cells; format: cell-based
[2] = system: in-situ glioma model (C6 cells); experiment: Survival curve and median survival day; format: in vivo, nude mice
[3] = in words; cited from earlier work
[4] = system: human breast cancer cell 4T1; experiment: In vivo drug efficacy assay, relative tumor volume (Rh2/PTX groups); parameters: species or system nude mice; details: 4T1, tail vein 30 mg/kg
Experimental: To evaluate the drug efficacy in vivo, 45 subcutaneous tumor-bearing nude mice were randomized into 5 treatment groups (9 in each group) and intravenously injected with PBS solution (control group), ginsenoside Rh2 (Rh2 group), ginsenoside Rh2 blank liposome (Rh2-Blank group), conventional paclitaxel cholesterol liposome (PTX-Cho-Lipo group) and ginsenoside Rh2 paclitaxel liposome (PTX-Rh2-Gipo group) via tail vein at a dose of 30 mg/kg. The changes of body weights of mice in each group were recorded every 2 days, and the longest diameter and the shortest diameter of tumors were measured with vernier calipers. The tumor volume was calculated by the following formula: V=(dmax×dmin^2)/2, wherein dmin and dmax are respectively the shortest diameter and the longest diameter (mm) of the tumor; a relative tumor volume (RTV) was calculated according to the measurement results, by the formula: RTV=TVn/TV0, […], TV0 is the volume of the tumor measured at day zero (the administration day).

[5] = system: human breast cancer cell line (4T1); experiment: In vitro drug efficacy assay, cell survival rate (Rh2/PTX groups)
Experimental: Logarithmically growing tumor cells were collected and resuspended in DMEM complete medium supplemented with 10% fetal bovine serum, 100 U/ml penicillin and 100 μg/ml streptomycin to a final cell density of 4×10^4 cells/ml. Then, 200 μl cell suspension solution was seeded into each well of a 96-well plate (with a concentration of 8×10^3 cells/well) and the plate was cultured in a CO2 cell culture incubator at 37° C. […] The group without replacing DMEM complete medium by anti-cancer drug solution was used as negative control. For each concentration group, 4 replicates were set up. The whole experiment was independently repeated 3 times. The cells were continuously cultured in a CO2 cell culture incubator at 37° C. […] Then discarded the supernatant, added 150 μl DMSO into each well, and shaked the plate for 10 min. The absorbance was measured at 490 nm using a microplate reader (Tecan infinite M 200 TECAN, Switzerland). The cell survival rate is calculated according to the following formula:

CC(C)=CCC[C@](C)(O)[C@H]1CC[C@]2(C)[C@@H]1[C@H](O)C[C@@H]1[C@@]3(C)CC[C@H](O[C@@H]4O[C@H](CO)[C@@H](O)[C@H](O)[C@H]4O[C@@H]4O[C@H](CO)[C@@H](O)[C@H](O)[C@H]4O)C(C)(C)[C@@H]3CC[C@]12C [Rg3, Ginsenoside 20(S)-Rg3]
Relative tumor volume ([1]; BGC-823, tail vein 10 mg·kg^1, time 1 d): 166.88
Relative tumor volume ([1]; BGC-823, tail vein 10 mg·kg^1, time 3 d): 267.38
Relative tumor volume ([1]; BGC-823, tail vein 10 mg·kg^1, time 5 d): 317.96
Relative tumor volume ([1]; BGC-823, tail vein 10 mg·kg^1, time 7 d): 417.96
Relative tumor volume ([1]; BGC-823, tail vein 10 mg·kg^1, time 9 d): 717.96
Relative tumor volume ([1]; BGC-823, tail vein 10 mg·kg^1, time 11 d): 1340.69
Relative tumor volume ([1]; BGC-823, tail vein 10 mg·kg^1, time 13 d): 1636.89
Relative tumor volume ([1]; BGC-823, tail vein 10 mg·kg^1, time 15 d): 2034.43
Relative tumor volume ([1]; BGC-823, tail vein 10 mg·kg^1, time 17 d): 2034.43
Relative tumor volume ([1]; BGC-823, tail vein 10 mg·kg^1, time 19 d): 2034.43
Relative tumor volume ([1]; BGC-823, tail vein 10 mg·kg^1, time 21 d): 2034.43
Relative tumor volume ([1]; BGC-823, tail vein 10 mg·kg^1, time 23 d): 2034.43
Cell Viability (rat C6 glioma cells; C6, C 0.001 μg/ml (Table 10)): 100
Cell Viability (rat C6 glioma cells; C6, C 0.003 μg/ml (Table 10)): 98.82
Cell Viability (rat C6 glioma cells; C6, C 0.01 μg/ml (Table 10)): 92.42
Cell Viability (rat C6 glioma cells; C6, C 0.03 μg/ml (Table 10)): 92.03
Cell Viability (rat C6 glioma cells; C6, C 0.08 μg/ml (Table 10)): 94.23
Cell Viability (rat C6 glioma cells; C6, C 0.25 μg/ml (Table 10)): 95.43
Cell Viability (rat C6 glioma cells; C6, C 0.74 μg/ml (Table 10)): 92.822
Cell Viability (rat C6 glioma cells; C6, C 2.22 μg/ml (Table 10)): 96.16
Cell Viability (rat C6 glioma cells; C6, C 6.67 μg/ml (Table 10)): 95.02
Cell Viability (rat C6 glioma cells; C6, C 20 μg/ml (Table 10)): 89.02
Median survial ([2]; tail vein 10 mg·kg^−1): 29 days and 32 days
number of survived mice ([2]; tail vein 10 mg·kg^−1, Time 12 d): 10
number of survived mice ([2]; tail vein 10 mg·kg^−1, Time 14 d): 10
number of survived mice ([2]; tail vein 10 mg·kg^−1, Time 16 d): 9
number of survived mice ([2]; tail vein 10 mg·kg^−1, Time 18 d): 9
number of survived mice ([2]; tail vein 10 mg·kg^−1, Time 20 d): 8
number of survived mice ([2]; tail vein 10 mg·kg^−1, Time 22 d): 7
number of survived mice ([2]; tail vein 10 mg·kg^−1, Time 24 d): 7
number of survived mice ([2]; tail vein 10 mg·kg^−1, Time 26 d): 6
number of survived mice ([2]; tail vein 10 mg·kg^−1, Time 28 d): 5
number of survived mice ([2]; tail vein 10 mg·kg^−1, Time 30 d): 4
number of survived mice ([2]; tail vein 10 mg·kg^−1, Time 32 d): 4
number of survived mice ([2]; tail vein 10 mg·kg^−1, Time 34 d): 3
number of survived mice ([2]; tail vein 10 mg·kg^−1, Time 36 d): 3
number of survived mice ([2]; tail vein 10 mg·kg^−1, Time 38 d): 2
number of survived mice ([2]; tail vein 10 mg·kg^−1, Time 40 d): 1
number of survived mice ([2]; tail vein 10 mg·kg^−1, Time 42 d): 0
number of survived mice ([2]; tail vein 10 mg·kg^−1, Time 44 d): 0
number of survived mice ([2]; tail vein 10 mg·kg^−1, Time 46 d): 0
number of survived mice ([2]; tail vein 10 mg·kg^−1, Time 48 d): 0
number of survived mice ([2]; tail vein 10 mg·kg^−1, Time 50 d): 0
number of survived mice ([2]; tail vein 10 mg·kg^−1, Time 52 d): 0
number of survived mice ([2]; tail vein 10 mg·kg^−1, Time 54 d): 0
number of survived mice ([2]; tail vein 10 mg·kg^−1, Time 56 d): 0
number of survived mice ([2]; tail vein 10 mg·kg^−1, Time 58 d): 0
number of survived mice ([2]; tail vein 10 mg·kg^−1, Time 60 d): 0
number of survived mice ([2]; tail vein 10 mg·kg^−1, Time 62 d): 0
solubility in diethyl ether and chloroform [3]: insoluble in diethyl ether and chloroform
solubility in methanol and ethanol [3]: soluble in methanol and ethanol
solubility in water [3]: poorly soluble in water

CC(C)=CCC[C@](C)(O)[C@H]1CC[C@]2(C)[C@@H]1[C@H](O)C[C@@H]1[C@@]3(C)CC[C@H](O[C@@H]4O[C@H](CO)[C@@H](O)[C@H](O)[C@H]4O)C(C)(C)[C@@H]3CC[C@]12C [Rh2, ginsenoside Rh2]
solubility in diethyl ether and chloroform [3]: insoluble in diethyl ether and chloroform
solubility in methanol and ethanol [3]: soluble in methanol and ethanol
solubility in water [3]: poorly soluble in water
Relative tumor volume ([4]; time 0 d): 100.00
Relative tumor volume ([4]; time 3 d): 200.94
Relative tumor volume ([4]; time 6 d): 316.69
Relative tumor volume ([4]; time 9 d): 276.04
Relative tumor volume ([4]; time 12 d): 400.20
Relative tumor volume ([4]; time 15 d): 473.53
Relative tumor volume ([4]; time 18 d): 510.20
Relative tumor volume ([4]; time 21 d): 898.52
Cell Viability ([5]; 4T1, C 0.00366 μM): 104.04
Cell Viability ([5]; 4T1, C 0.01097 μM): 92.85
Cell Viability ([5]; 4T1, C 0.03292 μM): 94.47
Cell Viability ([5]; 4T1, C 0.09877 μM): 99.90
Cell Viability ([5]; 4T1, C 0.29630 μM): 98.07
Cell Viability ([5]; 4T1, C 0.88889 μM): 96.04
Cell Viability ([5]; 4T1, C 2.66667 μM): 104.25
Cell Viability ([5]; 4T1, C 8.00000 μM): 100.73
activity in vitro against human breast cancer cells (4T1) ([5]; in words): low activity
